Experimental data from patent US9220719B2, “Single dose oral formulations and methods for treatment of cats with ectoparasiticidal spinosad” (priority 2012, dated 2015).

Key:
[1] = Pharmacokinetics of spinosad API capsules and spinosad tablets after oral administration to cats (Example 2); conditions: for mean Tmax / mean elimination half-life (t1/2) / mean normalized AUC0-∞ / mean normalized Cmax: cats, oral; for mean normalized AUC0-∞ / mean normalized Cmax: plasma, normalized to dose
Protocol: The plasma concentrations and resulting pharmacokinetics of spinosad tablets when administered orally to adult cats in the fed or fasted state can be evaluated. Twenty four cats (12 male and 12 female) can be dosed with approximately 80 mg/kg spinosad, as either API in gelatin capsules or as spinosad formulated chewable tablets. Serial blood samples can be collected through 672 hours (28 days) after dose administration. […] Samples can be immediately mixed by inversion several times and stored on ice until centrifuged. The plasma can be collected, split into two approximately equal aliquots and stored frozen at approximately −70° C. until shipped for analysis, and/or analyzed by a validated LC/MS/MS assay.

[2] = system: adult cat flea (Ctenocephalides felis); test: Dose determination: knockdown and residual effectiveness of spinosad (gelatin capsule) against adult fleas on experimentally infested cats (Example 1); format: in vivo; conditions: for Geometric Mean Counts of Adult C. felis / Geometric Mean Percent Reduction of Adult C. felis Compared to Untreated Control Group: fed
From the text: The “knockdown” and “residual” effectiveness of spinosad can be evaluated following oral administration at four different single dosages, compared to a non-treated control group, against the adult cat flea (Ctenocephalides felis) on experimentally infested cats. A minimum effective oral dose in cats can be evaluated based on knockdown efficacy (i.e., on Day 1 following administration) and on residual efficacy (i.e., on Day 30 following administration) against the cat flea (Ctenocephalides felis).
Forty cats can be evaluated in a randomized complete block design with cat gender and pretreatment live flea counts used as blocking factors. Five treatment groups of four female and four male cats per group can be orally dosed on Test Day 0: Group (1) can be administered 0 mg/kg vehicle control (empty gelatin capsule); Group (2) can be administered spinosad in a gelatin capsule at a dose of 35 mg/kg body weight; Group (3) can be administered spinosad in a gelatin capsule at a dose of 40 mg/kg body weight; Group (4) can be administered spinosad in a gelatin capsule at a dose of 45 mg/kg body weight; and Group (5) can be administered spinosad in a gelatin capsule at a dose of 50 mg/kg body weight. All cats can consume canned cat food just prior to dosing to ensure they were in a fed state. Each cat can be infested with approximately 100 newly emerged, unfed adult fleas (C. felis), on Test Days −6, −1, 5, 12, 19, 28 and 35. Individual animal flea counts can be performed approximately 48-hours post-infestation using the laboratory's comb counting method on Test Days −4, 1, 7, 14, 21, 30 and 37. The Day −4 pre-treatment live flea counts can be used to allocate animals to the five treatment groups. The Day 1, 7, 14, 21, 30 and 37 flea counts can be used to evaluate the knockdown (Day 1) and residual flea efficacy in each of the treated groups compared to the vehicle (negative) control group.

[3] = Tolerability of oral spinosad in cats (Example 1); format: in vivo, cat; conditions: single oral dose 35-50 mg/kg in gelatin capsule
[4] = system: adult cat fleas (Ctenocephalides felis); test: Dose confirmation: efficacy of beef flavored spinosad tablet against fleas on experimentally infested cats (Example 3); format: in vivo; conditions: beef flavored tablet 50-75 mg/kg single oral dose
Protocol: The treatment effect (insecticidal efficacy) of a beef flavored spinosad tablet when administered orally at a dose of 50-75 mg/kg against fleas (Ctenocephalides felis) on experimentally infested cats can be evaluated at one day post-administration and for the post-treatment prevention effect (residual efficacy) on Days 7, 14, 21 and 28.
(§1) In total, twenty-two (22) cats can be acclimatized for the study and from these, 17 can be selected based on pre-treatment weight and flea retention counts to be randomized into either a treated or control group. Nine cats can be assigned to the control group and eight cats can be assigned to the treatment group based on flea retention counts from Day −5. Cats in the treated group can be dosed on Day 0 with the intended final formulation, a beef flavored tablet containing spinosad at a dose rate of 50-75 mg/kg spinosad/body weight, while the cats in the control group can be dosed with a vehicle control tablet.
Each cat can be infested with approximately 100 fleas on Days −1, 7, 14, 21 and 28 and then combed and the fleas counted on Days 1, 9, 16, 23 and 30 respectively.
(§2) Seventeen cats were randomized based on pre-treatment flea infestation counts into either a treated or control group. Eight cats were dosed on Day 0 with a beef flavored tablet containing spinosad with an overall dose range of 51.47 to 76.06 mg/kg spinosad body weight. The other nine cats were dosed with a vehicle control tablet.

[5] = Tolerability of flavored spinosad tablet in cats (Example 3); format: in vivo, cat; conditions: beef flavored tablet 51.47 to 76.06 mg/kg single oral dose
From the text: as §1, §2

[6] = system: adult cat fleas (Ctenocephalides felis); test: Dose confirmation: efficacy of flavored spinosad tablet against fleas on experimentally infested cats (Example 4); format: in vivo; conditions: flavored tablet 50-75 mg/kg single oral dose, fed
From the text: Confirmation of the efficacious dose of spinosad can be evaluated in cats experimentally infested with adult fleas (Ctenocephalides felis).
Twenty-four (24) cats that meet the inclusion/exclusion criteria and had the highest pre-treatment live flea (C. felis) counts can be included in a randomized complete block design with pre-treatment live flea counts used as a blocking factor. Each cat can be infested with approximately 100 unfed adult fleas (C. felis) on Test Day −9. Pre-treatment live flea counts can be conducted using the laboratory's comb counting method on Test Day −7. The Test Day −7 live flea counts can be used to allocate cats to one of two treatment groups. The two treatment groups of 12 cats per group can be orally dosed on Test Day 0. One group (5 male: 7 female) can receive vehicle control (0 mg/kg placebo tablets) and the second group (7 male: 5 female) can receive flavored spinosad tablets at a dose rate of 50-75 mg/kg body weight. Cats can consume canned cat food just prior to dosing and can be offered their daily maintenance diet after dosing. Each cat can be infested with approximately 100 unfed adult fleas (C. felis) on Test Days −1, 5, 12, 19, 28 and 35. Individual animal live flea counts can be performed on Test Days 1, 7, 14, 21, 30 and 37.

[7] = group 1: 80 mg/kg spinosad API in gel capsules, fed
[8] = group 2: 80 mg/kg spinosad tablets, fed
[9] = group 3: 80 mg/kg spinosad tablets, fasted
[10] = single oral dose 35 mg/kg in gelatin capsule, Day 7 post treatment
[11] = single oral dose 35 mg/kg in gelatin capsule, Day 14 post treatment
[12] = single oral dose 35 mg/kg in gelatin capsule, Day 21 post treatment
[13] = single oral dose 35 mg/kg in gelatin capsule, Day 37 post treatment
[14] = single oral dose 40 mg/kg in gelatin capsule, Day 7 post treatment
[15] = single oral dose 40 mg/kg in gelatin capsule, Day 14 post treatment
[16] = single oral dose 40 mg/kg in gelatin capsule, Day 21 post treatment
[17] = single oral dose 40 mg/kg in gelatin capsule, Day 30 post treatment
[18] = single oral dose 40 mg/kg in gelatin capsule, Day 37 post treatment
[19] = single oral dose 45 mg/kg in gelatin capsule, Day 7 post treatment
[20] = single oral dose 45 mg/kg in gelatin capsule, Day 14 post treatment
[21] = single oral dose 45 mg/kg in gelatin capsule, Day 21 post treatment
[22] = single oral dose 45 mg/kg in gelatin capsule, Day 37 post treatment
[23] = single oral dose 50 mg/kg in gelatin capsule, Day 7 post treatment
[24] = single oral dose 50 mg/kg in gelatin capsule, Day 14 post treatment
[25] = single oral dose 50 mg/kg in gelatin capsule, Day 21 post treatment
[26] = single oral dose 50 mg/kg in gelatin capsule, Day 30 post treatment
[27] = single oral dose 50 mg/kg in gelatin capsule, Day 37 post treatment

Substance: spinosyn A
- mean Tmax [1, 7]: 12 ± 5.2 h
- mean elimination half-life (t1/2) [1, 7]: 327 ± 84.3 h
- mean normalized AUC0-∞ [1, 7]: 4,460±1410 hr*ng*kg/mg*mL
- mean normalized Cmax [1, 7]: 60 ± 18 ng·kg/mg/mL
- mean Tmax [1, 8]: 10 ± 3.0 h
- mean elimination half-life (t1/2) [1, 8]: 277 ± 75.5 h
- mean normalized AUC0-∞ [1, 8]: 4,480±1180 hr*ng*kg/mg*mL
- mean normalized Cmax [1, 8]: 46 ± 14 ng·kg/mg/mL
- mean Tmax [1, 9]: 6.0 ± 3.7 h
- mean elimination half-life (t1/2) [1, 9]: 193 ± 60.5 h
- mean normalized AUC0-∞ [1, 9]: 781 ± 406 ng·kg·h/mg/mL
- mean normalized Cmax [1, 9]: 11 ± 6.6 ng·kg/mg/mL

Substance: spinosad
- fleas at each comb count ([2]; 50 mg/kg oral, up through Day 21): zero
- post-treatment residual flea efficacy (geometric means) ([2]; all four spinosad groups (35, 40, 45, 50 mg/kg oral), up to and including Day 21 post-treatment): > 90%
- Geometric Mean Counts of Adult C. felis ([2]; single oral dose 35 mg/kg in gelatin capsule, Day 1 post treatment): (0.0)
- Geometric Mean Percent Reduction of Adult C. felis Compared to Untreated Control Group ([2]; single oral dose 35 mg/kg in gelatin capsule, Day 1 post treatment, 35 mg/kg): 100%
- Geometric Mean Counts of Adult C. felis [2, 10]: (0.0)
- Geometric Mean Percent Reduction of Adult C. felis Compared to Untreated Control Group [2, 10]: 100.00%
- Geometric Mean Counts of Adult C. felis [2, 11]: (0.2)
- Geometric Mean Percent Reduction of Adult C. felis Compared to Untreated Control Group [2, 11]: 99.74%
- Geometric Mean Counts of Adult C. felis [2, 12]: (5.4)
- Geometric Mean Percent Reduction of Adult C. felis Compared to Untreated Control Group [2, 12]: 92.94%
- Geometric Mean Counts of Adult C. felis ([2]; single oral dose 35 mg/kg in gelatin capsule, Day 30 post treatment): (11.8)
- Geometric Mean Counts of Adult C. felis [2, 13]: (32.4)
- Geometric Mean Percent Reduction of Adult C. felis Compared to Untreated Control Group [2, 13]: 52.20%
- Geometric Mean Counts of Adult C. felis ([2]; single oral dose 40 mg/kg in gelatin capsule, Day 1 post treatment): (0.0)
- Geometric Mean Percent Reduction of Adult C. felis Compared to Untreated Control Group ([2]; single oral dose 40 mg/kg in gelatin capsule, Day 1 post treatment, 40 mg/kg): 100%
- Geometric Mean Counts of Adult C. felis [2, 14]: (0.0)
- Geometric Mean Percent Reduction of Adult C. felis Compared to Untreated Control Group [2, 14]: 100.00%
- Geometric Mean Counts of Adult C. felis [2, 15]: (0.0)
- Geometric Mean Percent Reduction of Adult C. felis Compared to Untreated Control Group [2, 15]: 100.00%
- Geometric Mean Counts of Adult C. felis [2, 16]: (1.0)
- Geometric Mean Percent Reduction of Adult C. felis Compared to Untreated Control Group [2, 16]: 98.74%
- Geometric Mean Counts of Adult C. felis [2, 17]: (5.2)
- Geometric Mean Percent Reduction of Adult C. felis Compared to Untreated Control Group [2, 17]: 91.59%
- Geometric Mean Counts of Adult C. felis [2, 18]: (18.9)
- Geometric Mean Percent Reduction of Adult C. felis Compared to Untreated Control Group [2, 18]: 72.18%
- Geometric Mean Counts of Adult C. felis ([2]; single oral dose 45 mg/kg in gelatin capsule, Day 1 post treatment): (0.0)
- Geometric Mean Percent Reduction of Adult C. felis Compared to Untreated Control Group ([2]; single oral dose 45 mg/kg in gelatin capsule, Day 1 post treatment, 45 mg/kg): 100%
- Geometric Mean Counts of Adult C. felis [2, 19]: (0.4)
- Geometric Mean Percent Reduction of Adult C. felis Compared to Untreated Control Group [2, 19]: 99.50%
- Geometric Mean Counts of Adult C. felis [2, 20]: (2.0)
- Geometric Mean Percent Reduction of Adult C. felis Compared to Untreated Control Group [2, 20]: 97.22%
- Geometric Mean Counts of Adult C. felis [2, 21]: (4.6)
- Geometric Mean Percent Reduction of Adult C. felis Compared to Untreated Control Group [2, 21]: 93.98%
- Geometric Mean Counts of Adult C. felis ([2]; single oral dose 45 mg/kg in gelatin capsule, Day 30 post treatment): (11.9)
- Geometric Mean Counts of Adult C. felis [2, 22]: (35.1)
- Geometric Mean Percent Reduction of Adult C. felis Compared to Untreated Control Group [2, 22]: 48.29%
- Geometric Mean Counts of Adult C. felis ([2]; single oral dose 50 mg/kg in gelatin capsule, Day 1 post treatment): (0.0)
- Geometric Mean Percent Reduction of Adult C. felis Compared to Untreated Control Group ([2]; single oral dose 50 mg/kg in gelatin capsule, Day 1 post treatment, 50 mg/kg): 100%
- Geometric Mean Counts of Adult C. felis [2, 23]: (0.0)
- Geometric Mean Percent Reduction of Adult C. felis Compared to Untreated Control Group [2, 23]: 100.00%
- Geometric Mean Counts of Adult C. felis [2, 24]: (0.0)
- Geometric Mean Percent Reduction of Adult C. felis Compared to Untreated Control Group [2, 24]: 100.00%
- Geometric Mean Counts of Adult C. felis [2, 25]: (0.0)
- Geometric Mean Percent Reduction of Adult C. felis Compared to Untreated Control Group [2, 25]: 100.00%
- Geometric Mean Counts of Adult C. felis [2, 26]: (1.6)
- Geometric Mean Percent Reduction of Adult C. felis Compared to Untreated Control Group [2, 26]: 97.33%
- Geometric Mean Counts of Adult C. felis [2, 27]: (8.5)
- Geometric Mean Percent Reduction of Adult C. felis Compared to Untreated Control Group [2, 27]: 87.50%
- tolerability [3]: well tolerated
- AUC0-∞ in fed animals relative to fasted animals ([1]; in vivo): 5-10 times
- Cmax in fed animals relative to fasted animals ([1]; in vivo): 4-7 times
- Geometric Mean Percent Reduction of Adult C. felis Compared to Untreated Control Group ([4]; Day 1 post treatment): 100.0%
- Geometric Mean Percent Reduction of Adult C. felis Compared to Untreated Control Group ([4]; Day 7 (day of infestation, counted Day 9)): 100.0%
- Geometric Mean Percent Reduction of Adult C. felis Compared to Untreated Control Group ([4]; Day 14 (day of infestation, counted Day 16)): 99.69%
- Geometric Mean Percent Reduction of Adult C. felis Compared to Untreated Control Group ([4]; Day 21 (day of infestation, counted Day 23)): 99.45%
- Geometric Mean Percent Reduction of Adult C. felis Compared to Untreated Control Group ([4]; Day 28 (day of infestation, counted Day 30)): 98.05%
- tolerability [5]: adequately tolerated
- knockdown efficacy based on geometric means ([6]; Day 1): 100%
- residual efficacy based on geometric means ([6]; Day 7): 99.78%
- residual efficacy based on geometric means ([6]; Day 14): 99.57%
- residual efficacy based on geometric means ([6]; Day 21): 95.83%
- residual efficacy based on geometric means ([6]; Day 30): 90.77%
- residual efficacy based on geometric means ([6]; Day 37): 90.36%
